Measured values: patent US9637462B2, “Process for the preparation of N-iodoamides” (TECHNION RESEARCH & DEVELOPMENT FOUNDATION LIMITED, priority 2013, dated 2017)

Legend:
[1] = Distribution coefficient (K) of amides between water-immiscible organic solvent and water (recovery of amides from aqueous solution); format: physicochemical; settings: 25° C., stirred 0.5 h
Protocol: A mixture of amide (weight of amide (W): 0.2-0.5 g), water (20-100 mL) and water immiscible organic solvent (the same volume as water) was stirred at 25° C. for 0.5 h. The organic layer was thoroughly separated, dried over Na2SO4, filtered and concentrated in vacuo to recover the amide. Distribution coefficient K was calculated according to the formula K=Wo/W−Wo, where Wo is weight of the recovered amide in g. Distribution coefficients of 3,5,5-trimethylhydantoin (3,5,5-TMH), 4,4-dimethyloxazolidin-2-one (DMO), 5,5-dimethylhydantoin (DMH) and succinimide in hexane, benzene, CCl4 and DCM are shown in Table 3.1.

[2] = shake-flask, equal volumes, gravimetric recovery from organic layer; settings: 25 °C
[3] = PhH (benzene) / water (equal volumes)

Structure (SMILES)	melting point	Distribution coefficient (K) ([1]; CCl4 / water (equal volumes))	Distribution coefficient (K) ([1]; DCM / water (equal volumes))	Distribution coefficient (K) [1, 3]	Distribution coefficient (K) ([1]; hexane / water (equal volumes))	partition coefficient dichloromethane / water [2]
CC1(C)COC(=O)N1I	148 to 149 °C (dec.)					
CN1C(=O)NC(C)(C)C1=O [3,5,5-TMH, 3,5,5-trimethylhydantoin]		0.1≦	1.6	0.1≦	0.1≦	1.6 mass ratio (equal phase volumes)
CC1(C)NC(=O)NC1=O [DMH, 5,5-dimethylhydantoin, reference compound]		0.1≦	0.1≦	0.1≦	0.1≦	
CC1(C)COC(=O)N1 [DMO, 4,4-dimethyloxazolidin-2-one]		0.1≦	0.5	0.1≦	0.1≦	0.5 mass ratio (equal phase volumes)
CN1C(=O)N(I)C(C)(C)C1=O [1-ITMH, 1-iodo-3,5,5-trimethylhydantoin]	198 to 199 °C (dec.)					
O=C1CCC(=O)N1 [succinimide, reference compound]		0.1≦	0.1≦	0.1≦	0.1≦	
CN1C(=O)N(I)C(=O)C1(C)C [3-ITMH, 3-iodo-1,5,5-trimethylhydantoin]	213 to 214 °C (dec.)					
